The subject of experiment [1] is A/Minfang/151/2000 (H3N2). Kind of experiment: microbe, parasite or virus in culture. As to conditions: Influenza A virus, H3N2, MDCK.
Experiment [2] deals with A/PR/8/34 (H1N1).
For experiment [3], the system named is A/Minfang/151/2000 (H3N2).
The subject of experiment [4] is A/PR/8/34 (H1N1). Kind of experiment: microbe, parasite or virus in culture. Conditions: Influenza A virus, MDCK.
Experiment [5] relates to Japanese encephalitis virus (JEV). As to conditions: in vitro; ref Chang et al., 2012; cited from earlier work.
The test system is the same in experiment [6]. As to conditions: mouse model; ref Chang et al., 2012; cited from earlier work.
Experiment [7] concerns H1N1. Conditions: restraint-stressed mouse model; ref Chong et al., 2017; cited from earlier work.
Experiment [8] relates to HCoV-NL63. Also noted: method as in Tsai et al., 2020. As to conditions: HCoV-NL63-infected cells; ref Tsai et al., 2020; read-out: IC50 (CPE and virus yield); cited from earlier work.

Converted amounts (≈) assume the structure as drawn. “And” between values parts separate entries of the source, which are not always exact repeats. Equal entries are not always repeated. Where two headings read alike, the source gives them in different places.

With `COc1ccc(-c2cc(=O)c3c(O)cc(O)cc3o2)cc1` [Acacetin], the midpoint of inhibition in experiment [1], the IC50, lay at 7.62 ± 1.45 µg/mL (≈ 26.8 µM).
As to `COc1c(O)cc2oc(-c3ccc(O)cc3)cc(=O)c2c1O` [Dinatin], the IC50 (in general, the concentration at which inhibition is half-maximal) in experiment [1] was greater than 100 µg/mL.
Regarding `COc1ccc(-c2cc(=O)c3c(O)c(OC)c(OC)cc3o2)cc1O` [Eupatorin], the IC50 was 63.99 ± 3.38 µg/mL and 55.77 ± 3.86 µg/mL and 88.92 ± 7.34 µg/mL in experiment [2]; 69.31 ± 1.97 µg/mL and 73.85 ± 1.34 µg/mL and 92.58 ± 0.33 µg/mL in experiment [3]; 59.5 ± 3.58 µg/mL (≈ 173 µM) in experiment [4].
Consider `O=C1Nc2ccccc2/C1=C1/Nc2ccccc2C1=O` [Indirubin], for which the IC50 in experiment [2] is 63.45 ± 5.27 µg/mL and 86.3 ± 5.68 µg/mL and 69.49 ± 1.36 µg/mL; in experiment [4], 58.5 ± 10.2 µg/mL (≈ 223 µM); in experiment [1] it was 77.2 ± 6 µg/mL (≈ 294 µM). Also, the “inhibitory activity on JEV replication” value in experiment [5] was “concentration-dependent inhibitory activity”. For the same compound, the “protection against lethal JEV challenge” value in experiment [6] was “good protective effects”. For the same compound, the “H1N1 susceptibility and lung damage” value in experiment [7] is “decrease the H1N1 susceptibility and alleviate lung damage”.
Regarding `COc1ccc(-c2cc(=O)c3c(O)cc(O[C@@H]4O[C@H](CO[C@@H]5O[C@@H](C)[C@H](O)[C@@H](O)[C@H]5O)[C@@H](O)[C@H](O)[C@H]4O)cc3o2)cc1` [Linarin], the IC50 in experiment [2] is 54.27 ± 3.01 µg/mL and 72.21 ± 2.42 µg/mL and 56.26 ± 0.78 µg/mL; in experiment [3], 81.85 ± 2.76 µg/mL and 86.35 ± 9.88 µg/mL and 77.71 ± 3.08 µg/mL; in experiment [4], 63.2 ± 3.32 µg/mL (≈ 107 µM).
On to `O=C1c2ccccc2-n2c1nc1ccccc1c2=O` [Tryptanthrin], for which the IC50 in experiment [8] was 1.52 µM.
